Measured values taken from patent US20230278972A1, “SUBSTITUTED HALOALKYL SULFONANILIDE HERBICIDES” (FMC Corporation, priority 2020, published 2023).

Columns and labels:
Assay type in all cases: in vivo
[1] = tested on: barnyardgrass (Echinochloa crus-galli); experiment: Test A preemergence, barnyardgrass; settings: Preemergence; for Barnyardgrass plant response rating: 125 g ai/ha, visual injury on 0 to 100 scale (0 no effect, 100 complete control), approximately 10 days; for Plant response rating, Barnyardgrass: 0 to 100 scale (0 no effect, 100 complete control)
Procedure, shortened: (§1)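 Greenhouse pot test in a loam–sand blend; compounds delivered in a non-phytotoxic solvent carrying a surfactant, applied either as a directed spray to soil at seeding or over seedlings 2 to 10 cm high with one to two leaves.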

corn (Zea mays) = experiment: Test A postemergence, corn; settings: Postemergence; for Corn plant response rating: 500 g ai/ha, visual injury vs untreated controls after approx. 10 days
Procedure, shortened: as §1

[2] = tested on: galium (catchweed bedstraw, Galium aparine); experiment: Test A postemergence, galium; settings: Postemergence; for Galium plant response rating: 500 g ai/ha, visual injury vs untreated controls after approx. 10 days
Procedure, shortened: (§2)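 Test chemicals, formulated in a non-phytotoxic solvent mixture with surfactant, were sprayed postemergence on plants 2 to 10 cm tall at the one- to two-leaf stage. Preemergence treatment was a directed soil spray onto freshly seeded pots. Both used a loam soil and sand blend.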

[3] = tested on: wheat (Triticum aestivum); experiment: Test A postemergence, wheat; settings: Postemergence; for Wheat plant response rating: 500 g ai/ha, visual injury vs untreated controls after approx. 10 days
Procedure, shortened: as §2

[4] = tested on: pigweed (Amaranthus retroflexus); experiment: Test A postemergence, pigweed; settings: Postemergence; for Pigweed plant response rating: 500 g ai/ha, visual injury vs untreated controls after approx. 10 days
Procedure, shortened: as §1

[5] = tested on: Ryegrass, Italian (Italian ryegrass, Lolium multiflorum); experiment: Test A preemergence, Ryegrass, Italian; settings: Preemergence; for Ryegrass, Italian plant response rating: 125 g ai/ha, visual injury on 0 to 100 scale (0 no effect, 100 complete control), approximately 10 days; for Plant response rating, Ryegrass, Italian: 0 to 100 scale (0 no effect, 100 complete control)
Procedure, shortened: as §1

kochia (Bassia scoparia) [6] = experiment: Test A preemergence, kochia; settings: Preemergence; for Kochia plant response rating: 125 g ai/ha, visual injury on 0 to 100 scale (0 no effect, 100 complete control), approximately 10 days; for Plant response rating, Kochia: 0 to 100 scale (0 no effect, 100 complete control)
Procedure, shortened: as §1

[7] = tested on: blackgrass (Alopecurus myosuroides); experiment: Test A postemergence, blackgrass; settings: Postemergence, 0 to 100 scale (0 no effect, 100 complete control); for Blackgrass plant response rating: 500 g ai/ha, visual injury vs untreated controls after approx. 10 days
Procedure, shortened: as §1

[8] = tested on: barnyardgrass (Echinochloa crus-galli); experiment: Test A postemergence, barnyardgrass; settings: Postemergence, 0 to 100 scale (0 no effect, 100 complete control); for Barnyardgrass plant response rating: 500 g ai/ha, visual injury vs untreated controls after approx. 10 days
Procedure, shortened: as §2

kochia (Bassia scoparia) [9] = experiment: Test A postemergence, kochia; settings: Postemergence; for Kochia plant response rating: 500 g ai/ha, visual injury vs untreated controls after approx. 10 days
Procedure, shortened: as §1

[10] = tested on: Ryegrass, Italian (Italian ryegrass, Lolium multiflorum); experiment: Test A postemergence, Ryegrass, Italian; settings: Postemergence; for Ryegrass, Italian plant response rating: 500 g ai/ha, visual injury vs untreated controls after approx. 10 days
Procedure, shortened: as §1

[11] = tested on: Foxtail, Giant (giant foxtail, Setaria faberi); experiment: Test A preemergence, Foxtail, Giant; settings: Preemergence; for Foxtail, Giant plant response rating: 125 g ai/ha, visual injury on 0 to 100 scale (0 no effect, 100 complete control), approximately 10 days; for Plant response rating, Foxtail, Giant: 0 to 100 scale (0 no effect, 100 complete control)
Procedure, shortened: as §1

[12] = tested on: pigweed (Amaranthus retroflexus); experiment: Test A preemergence, pigweed; settings: for Pigweed plant response rating: 125 g ai/ha, visual injury on 0 to 100 scale (0 no effect, 100 complete control), approximately 10 days; for Plant response rating, Pigweed: 0 to 100 scale (0 no effect, 100 complete control)
Procedure, shortened: as §2

[13] = tested on: ragweed (common ragweed, Ambrosia artemisiifolia); experiment: Test A preemergence, ragweed; settings: Preemergence; for Ragweed plant response rating: 125 g ai/ha, visual injury on 0 to 100 scale (0 no effect, 100 complete control), approximately 10 days; for Plant response rating, Ragweed: 0 to 100 scale (0 no effect, 100 complete control)
Procedure, shortened: as §1

[14] = tested on: Foxtail, Giant (giant foxtail, Setaria faberi); experiment: Test A postemergence, Foxtail, Giant; settings: Postemergence; for Foxtail, Giant plant response rating: 500 g ai/ha, visual injury vs untreated controls after approx. 10 days
Procedure, shortened: as §1

[15] = tested on: ragweed (common ragweed, Ambrosia artemisiifolia); experiment: Test A postemergence, ragweed; settings: Postemergence; for Ragweed plant response rating: 500 g ai/ha, visual injury vs untreated controls after approx. 10 days
Procedure, shortened: as §1

[16] = 125 g ai/ha, visual injury approx. 10 days, 0 to 100 scale (0 no effect, 100 complete control)
[17] = 0 to 100 scale (0 no effect, 100 complete control)
[18] = 125 g ai/ha, visual injury approx. 10 days
[19] = 31 g ai/ha, visual injury, approx. 10 days
[20] = 31 g ai/ha, visual injury on 0 to 100 scale (0 no effect, 100 complete control), approx. 10 days

SMILES	Barnyardgrass plant response rating [1]	Plant response rating, Barnyardgrass ([1]; 500 g ai/ha)	Plant response rating, Corn (corn (Zea mays); [16])	Corn plant response rating (corn (Zea mays); [17])	Plant response rating, Galium [2, 16]	Galium plant response rating [2, 17]	Plant response rating, Wheat [3, 16]	Wheat plant response rating [3, 17]	Plant response rating, Pigweed [4, 16]	Pigweed plant response rating [4, 17]	Ryegrass, Italian plant response rating [5]	Plant response rating, Ryegrass, Italian ([5]; 500 g ai/ha)	Kochia plant response rating (kochia (Bassia scoparia) [6])	Plant response rating, Blackgrass [7, 18]	Plant response rating, Barnyardgrass [8, 18]	Plant response rating, Kochia (kochia (Bassia scoparia) [9]; [16])	Foxtail, Giant plant response rating [11]	Pigweed plant response rating [12]	Ragweed plant response rating [13]	Plant response rating, Foxtail, Giant [14, 16]	further results
Cc1cc(C)c(C2=NOC3CCCCC23)cc1NS(=O)(=O)C(F)(F)F (stereo not drawn) [Compound 123]	100	100	10	70	80	90	50	60	60	80	90	100	40	20	90	50	100	90	50	30	Plant response rating, Kochia (kochia (Bassia scoparia) [6]; 500 g ai/ha): 80; Blackgrass plant response rating [7]: 50; Barnyardgrass plant response rating [8]: 90; Kochia plant response rating (kochia (Bassia scoparia) [9]; [17]): 70; Plant response rating, Ryegrass, Italian [10, 16]: 50; Ryegrass, Italian plant response rating [10, 17]: 50; Plant response rating, Foxtail, Giant ([11]; 500 g ai/ha): 100; Plant response rating, Pigweed ([12]; 500 g ai/ha): 100; Plant response rating, Ragweed ([13]; 500 g ai/ha): 80; Foxtail, Giant plant response rating [14, 17]: 80; Plant response rating, Ragweed [15, 16]: 50; Ragweed plant response rating [15, 17]: 70
Cc1cc(C#N)c(C(=O)N2CCCCC2)cc1NS(=O)(=O)C(F)(F)F [Compound 126]	0	40	0	20	80	90	0	0	70	90	0	40	0	20	0	10	20	70	0	0	Plant response rating, Kochia (kochia (Bassia scoparia) [6]; 500 g ai/ha): 30; Blackgrass plant response rating [7]: 30; Barnyardgrass plant response rating [8]: 0; Kochia plant response rating (kochia (Bassia scoparia) [9]; [17]): 30; Plant response rating, Ryegrass, Italian [10, 16]: 0; Ryegrass, Italian plant response rating [10, 17]: 0; Plant response rating, Foxtail, Giant ([11]; 500 g ai/ha): 90; Plant response rating, Pigweed ([12]; 500 g ai/ha): 100; Plant response rating, Ragweed ([13]; 500 g ai/ha): 30; Foxtail, Giant plant response rating [14, 17]: 0; Plant response rating, Ragweed [15, 16]: 0; Ragweed plant response rating [15, 17]: 30
Cc1cc(C)c(N(S(=O)(=O)C(F)(F)F)S(=O)(=O)C(F)(F)F)cc1C1=NOC(C(C)(C)C)C1 (stereo not drawn) [Compound 127]	50	90	0	20	20	90	0	0	0	40	60	80	80	20	0	10	20	20	0	0	Plant response rating, Kochia (kochia (Bassia scoparia) [6]; 500 g ai/ha): 80; Blackgrass plant response rating [7]: 20; Barnyardgrass plant response rating [8]: 70; Kochia plant response rating (kochia (Bassia scoparia) [9]; [17]): 40; Plant response rating, Ryegrass, Italian [10, 16]: 40; Ryegrass, Italian plant response rating [10, 17]: 50; Plant response rating, Foxtail, Giant ([11]; 500 g ai/ha): 90; Plant response rating, Pigweed ([12]; 500 g ai/ha): 40; Plant response rating, Ragweed ([13]; 500 g ai/ha): 60; Foxtail, Giant plant response rating [14, 17]: 0; Plant response rating, Ragweed [15, 16]: 20; Ragweed plant response rating [15, 17]: 50
Cc1c(NS(=O)(=O)C(F)(F)F)cc(C(=O)N2CCC3(CC2)OCCCO3)c(C)c1F [Compound 129]	100	90	10	20	60	80	30	60	30	90	80	100	80	20	20	30	100	100	70	0	Plant response rating, Kochia (kochia (Bassia scoparia) [6]; 500 g ai/ha): 90; Blackgrass plant response rating [7]: 30; Barnyardgrass plant response rating [8]: 80; Kochia plant response rating (kochia (Bassia scoparia) [9]; [17]): 50; Plant response rating, Ryegrass, Italian [10, 16]: 0; Ryegrass, Italian plant response rating [10, 17]: 70; Plant response rating, Foxtail, Giant ([11]; 500 g ai/ha): 100; Plant response rating, Pigweed ([12]; 500 g ai/ha): 100; Plant response rating, Ragweed ([13]; 500 g ai/ha): 90; Foxtail, Giant plant response rating [14, 17]: 30; Plant response rating, Ragweed [15, 16]: 60; Ragweed plant response rating [15, 17]: 90
Cc1cc(C)c(C2=NOC3CCCCC23)cc1NS(=O)(=O)C(F)(F)F (stereo not drawn) [Compound 131]	90	–	20	–	90	–	–	–	–	–	80	–	40	0	80	60	100	90	40	10	Plant response rating, Barnyardgrass [1, 19]: 70; Plant response rating, Corn (corn (Zea mays); [20]): 0; Plant response rating, Galium [2, 20]: 60; Plant response rating, Wheat [3, 20]: 0; Plant response rating, Pigweed [4, 20]: 50; Plant response rating, Ryegrass, Italian [5, 19]: 30; Plant response rating, Kochia (kochia (Bassia scoparia) [6]; [19]): 30; Plant response rating, Blackgrass ([7]; 31 g ai/ha): 20; Plant response rating, Barnyardgrass ([8]; 31 g ai/ha): 20; Plant response rating, Kochia (kochia (Bassia scoparia) [9]; [20]): 40; Plant response rating, Ryegrass, Italian [10, 20]: 0; Plant response rating, Foxtail, Giant [11, 19]: 90; Plant response rating, Pigweed [12, 19]: 30; Plant response rating, Ragweed [13, 19]: 0; Plant response rating, Foxtail, Giant [14, 20]: 0; Plant response rating, Ragweed [15, 20]: 30
